Source: US8211945B2, “Carba-sugar amine derivative and glycolipid metabolic disorder treating agent containing the same as active ingredient” (Seikagaku Corporation, priority 2001, dated 2012)
Positions count from the first letter of the chain named.

Key:
Experiment in all cases: Mutant β-galactosidase activity in model cells, 4 days culture
Type in all cases: cell-based
[1] = target: T1, human mutant β-galactosidase W273L (Homo sapiens, UniProt P16278, W273L)
T1 construct: expressed in transfected cells; host or cells: SV40-immortalized skin fibroblasts of a β-galactosidase-deficient knockout mouse
T1 sequence (P16278 29-677 W273L): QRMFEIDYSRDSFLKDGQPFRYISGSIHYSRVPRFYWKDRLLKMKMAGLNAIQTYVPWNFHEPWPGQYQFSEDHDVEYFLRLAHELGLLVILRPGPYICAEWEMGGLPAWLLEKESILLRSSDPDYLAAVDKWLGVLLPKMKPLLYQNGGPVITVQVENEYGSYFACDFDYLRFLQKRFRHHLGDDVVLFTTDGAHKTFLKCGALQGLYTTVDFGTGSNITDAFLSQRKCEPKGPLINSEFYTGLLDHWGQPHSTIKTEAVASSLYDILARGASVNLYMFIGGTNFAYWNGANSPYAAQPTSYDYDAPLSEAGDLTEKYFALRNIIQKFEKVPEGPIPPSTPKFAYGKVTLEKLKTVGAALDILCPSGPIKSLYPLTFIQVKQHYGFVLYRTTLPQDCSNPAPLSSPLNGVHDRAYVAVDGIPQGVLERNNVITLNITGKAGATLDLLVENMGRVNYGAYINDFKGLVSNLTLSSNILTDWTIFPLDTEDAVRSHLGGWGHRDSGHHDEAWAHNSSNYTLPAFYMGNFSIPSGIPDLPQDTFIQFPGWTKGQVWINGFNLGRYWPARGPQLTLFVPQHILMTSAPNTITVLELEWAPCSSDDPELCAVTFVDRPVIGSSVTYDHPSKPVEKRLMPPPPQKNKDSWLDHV
Description: (§1) Cultured skin fibroblasts of a β-galactosidase-deficient knockout mouse was immortalized by introducing an SV40 viral gene, and enzyme genes integrated into pSV2neo and an expression vector were also introduced simultaneously, thereby establishing a model cell (Brain Dev., 23(5), 284-287, 2001). The genes used are human normal (GP8) and mutant β-galactosidase gene Y316C, G123R (infantile GM1-gangliosidosis), R201C (juvenile GM1-gangliosidosis), 151T, T82M, R201H, R263S, R457Q (adult GM1-gangliosidosis), W273L, Y83H, R482H and R482C (Morquio-B disease) (Hum. Genet., 93(2), 109-114, 1994).
(§2) As a control substance, 0.5 mM N-(n-butyl)-deoxygalactonojirimycin (NB-DGJ: The Journal of Biological Chemistry, 269, 27108-27114 (1994)) was used, and the substance 18 of the present invention was used in an amount of 0.2 μM.
(§3) Specifically, after culturing the model cell for 4 days using a cell culture medium (10% FCS DMEM) containing the substance 18 of the present invention, the resulting cells were recovered and diluted such that the amount of protein in the suspension became a predetermined level, and then enzyme activity in the diluted suspension was measured. Using 4-methylumbelliferyl-β-D-galactopyranoside as the fluorescent substrate, the enzyme activity during 30 minutes was measured at 37° C.

[2] = target: T2, human mutant β-galactosidase Y83H (Homo sapiens, UniProt P16278, Y83H)
T2 construct: expressed in transfected cells; host or cells: SV40-immortalized skin fibroblasts of a β-galactosidase-deficient knockout mouse
T2 sequence (P16278 29-677 Y83H): T1 sequence (P16278 29-677 W273L) with Y55H, L245W
Description: as §1, §2, §3

[3] = target: T3, human mutant β-galactosidase R457Q (Homo sapiens, UniProt P16278, R457Q)
T3 construct: expressed in transfected cells; host or cells: SV40-immortalized skin fibroblasts of a β-galactosidase-deficient knockout mouse
T3 sequence (P16278 29-677 R457Q): T1 sequence (P16278 29-677 W273L) with L245W, R429Q
Description: as §1, §2, §3

| SMILES | enzyme activity, Control ([1]; transferred gene W273L, control substance 0.5 mM NB-DGJ) | enzyme activity, Control ([2]; transferred gene Y83H, control substance 0.5 mM NB-DGJ) | enzyme activity, Control ([3]; transferred gene R457Q, control substance 0.5 mM NB-DGJ) | enzyme activity increased in comparison with the control ([1]; W273L, 0.2 μM) [%] | Relative ratio (×100%) ([1]; W273L, substance 18 vs control) | enzyme activity ([1]; transferred gene W273L, 0.2 μM, 4 days) | enzyme activity increased in comparison with the control ([2]; Y83H, 0.2 μM) [%] | Relative ratio (×100%) ([2]; Y83H, substance 18 vs control) | enzyme activity ([2]; transferred gene Y83H, 0.2 μM, 4 days) | enzyme activity increased in comparison with the control ([3]; R457Q, 0.2 μM) [%] | Relative ratio (×100%) ([3]; R457Q, substance 18 vs control) | enzyme activity ([3]; transferred gene R457Q, 0.2 μM, 4 days) |
| --- | --- | --- | --- | --- | --- | --- | --- | --- | --- | --- | --- | --- |
| CCCCN1C[C@H](O)[C@@H](O)[C@@H](O)[C@H]1CO [Control, N-(n-butyl)-deoxygalactonojirimycin, reference compound] | 11.83 | 8.89 | 5.84 |  |  |  |  |  |  |  |  |  |
| CCCCCCCCN[C@@H]1C=C(CO)[C@H](O)C(O)[C@@H]1O (stereo partly drawn) [Substance 18, N-octyl-5a-carba-α-L-arabino-hexo-5(5a)-enopyranosylamine] |  |  |  | ≥ 150 | 1.50 ×100% | 17.71 | ≥ 150 | 2.27 ×100% | 20.16 | ≥ 150 | 2.42 ×100% | 14.17 |
